Laboratory results as given in patent US10584369B2, “Cell-based methods for measuring activity of a protein inhibitor” (priority 2013, dated 2020).

What was measured:
[1] = molecular target: T1, wild-type human CDK2 (Homo sapiens, UniProt P24941); assay: Cell-based assay for CDK2 inhibition: fraction of Tomato+ MDA-MB-157 cells infected with wild-type CDK2-expressing lentivirus
T1 construct: Full-length cDNAs of wild-type human CDK2 conjugated with a HA tag; expressed in transfected cells; host or cells: MDA-MB-157 breast carcinoma cells, lentiviral vector pHIV-dTomato
Description: MDA-MB-157 cells were cultured in RPMI with 10% FBS+PS 1X and Glu 1X.
In this experiment, MDA-MB-157 cells were plated at 5×10^5 cells per P100 plate. Cells were infected with 5 ml of media supernatant containing the wild-type of both CDK3 and CDK2 lentivirus, with 1 × polybrene solution. 24 hrs post-infection, the media were changed to virus-free polybrene-free media. 48 hrs post-infection, cells were replated into 24-well plates, at 25,000 cells per well. […] On day 5 after plating, the cells were harvested, centrifuged, suspended in RPMI and aliquoted at 200 μl per well into 96-well plates. 4′,6-diamidino-2-phenylindole (DAPI) was added to the final concentration of 1 μg/ml and the samples were analyzed for DAPI and Tomato fluorescence using the flow cytometer.

[2] = molecular target: T2, wild-type human CDK3 (Homo sapiens, UniProt Q00526); assay: Cell-based assay for CDK3 inhibition: fraction of Tomato+ MDA-MB-157 cells infected with wild-type CDK3-expressing lentivirus
T2 construct: Full-length cDNAs of wild-type human CDK3; expressed in transfected cells; host or cells: MDA-MB-157 breast carcinoma cells, lentiviral vector pHIV-dTomato
Description: MDA-MB-157 cells were cultured in RPMI with 10% FBS+PS 1× and Glu 1×.
In the experiment shown in FIG. 2, MDA-MB-157 cells were plated at 10^5 cells per well of a 6-well plate and infected with 1 ml of lentiviral stocks expressing wild-type CDK3 or E195D CDK3 mutant, with 1× polybrene solution. 24 hrs post-infection, the media were changed to virus-free polybrene-free media. 8 days post-infection (FIG. 2) or 23 days post-infection (FIG. 2), the samples were immediately analyzed for Tomato (red fluorescent marker carried in the vector) fluorescence using Becton-Dickinson LSRII flow cytometer. The fraction of the infected cells was defined as the percentage of Tomato+cells.
In this experiment, MDA-MB-157 cells were plated at 5×10^5 cells per P100 plate. Cells were infected with 5 ml of media supernatant containing the wild-type CDK3 lentivirus, with 1× polybrene solution. 24 hrs post-infection, the media were changed to virus-free polybrene-free media. 48 hrs post-infection, cells were replated into 24-well plates, at 25,000 cells per well. The culture media (1 ml volume) in each well contained the CDK3 inhibitor SNX9-1-20 at 2, 1.75, 1.5, 1.25, 1, 0.9, 0.75, 0.5, 0.35, 0.2 and 0 μM (DMSO 0.1%), in duplicates. […] 4′,6-diamidino-2-phenylindole (DAPI) was added to the final concentration of 1 μg/ml and the samples were analyzed for DAPI and Tomato fluorescence using the flow cytometer.

For `CC(C)[C@H](CO)Nc1nc(Nc2cccc(Cl)c2)c2ncn(C(C)C)c2n1` [Purvalanol-A, Purvalanol A], the “fraction of wild-type CDK2 infected (Tomato+) cells” value ([1]; 1.6 μM inhibitor, day 5 after plating, 25.5% in the absence of inhibitor, FIG. 5) was 65.25%, the EC50 ([1]; Example 2, FIG. 5, day 5, read-out: concentration producing half-maximal effect on the increase in the fraction of infected cells (printed: wild-type CDK3 lentivirus; follows the CDK2 result)) was 200 nM and the “fraction of infected (Tomato+) cells, wild-type CDK3 lentivirus” value ([2]; 1.6 μM inhibitor, day 5 after plating, Example 2 (without inhibitor: 48.85% SNX9-1-20 experiment, 14.8% Purvalanol-A experiment)) was 66.5%. For the same compound, the EC50 ([2]; Example 2, FIG. 4 and FIG. 5, day 5, read-out: concentration producing half-maximal effect on the increase in the fraction of cells infected with the wild-type CDK3 lentivirus) was 600 nM.
